This is an account of results in patent US20190133997A1, “ARTEMISININ ANALOG, AND USE, METHOD, AND COMPOSITION FOR PROMOTING LIPID CATABOLISM AND IMPROVING SUGAR METABOLISM” (FUDAN UNIVERSITY, priority 2016, published 2019).

This assay has as its system high fat-fed mice. As to the kind of experiment: Subcutaneous artemether, weight gain induced by high-fat diet. The class given is in vivo, Male C57BL/6J mice. Particulars: eight weeks. The procedure:
The mice were breeded in the SPF animal laboratory of the Laboratory Animal Center of Fudan University at a room temperature of 21° C.-23° C. with a 12-hour light/dark cycle. […] When the mice were grown to 8-week old, they were randomly divided into a control group and an administration group, with 8 mice in each group. While the mice were fed with a high-fat diet, artemether was injected subcutaneously. Artemether was diluted in PBS at a concentration of […], and injected into bilateral inguinal region, with 200 μl being injected into each side. Mice in control group were injected with the same volume of PBS. Administration was continued for eight weeks and the weight of mice was recorded weekly.

Molecules are shown by their SMILES.

Regarding `CO[C@H]1O[C@@H]2O[C@@]3(C)CC[C@H]4[C@H](C)CC[C@@H]([C@H]1C)[C@@]24OO3` [artemether], the weight of mice result (subcutaneous injection 15 Mol/L in PBS, 200 μl each inguinal side, statistically different after six weeks) is “significantly lower than that of mice in control group”. The “weight gain of mice” value (subcutaneous injection) was “significantly slower than that of mice in control group”.
